Series [1] concerns brain AChE. The format is biochemical, Lagocephalus laevigatus. As for the experimental part:
(§1) The residual enzyme activities [Er] were evaluated.

Series [2] relates to brain AChE. Format: biochemical. Conditions: Genidens genidens (catfish) brain AChE. On the procedure:
as §1

Series [3] deals with brain AChE. Particulars: read-out: IC50-30min; Rattus (rat) brain AChE; cited from earlier work.
Series [4] deals with brain AChE. Particulars: read-out: IC50-30min; Gallus (chicken) brain AChE; cited from earlier work.
Series [5] deals with T1, brain AChE (Gallus gallus, UniProt P36196).
T1 sequence (P36196 20-767): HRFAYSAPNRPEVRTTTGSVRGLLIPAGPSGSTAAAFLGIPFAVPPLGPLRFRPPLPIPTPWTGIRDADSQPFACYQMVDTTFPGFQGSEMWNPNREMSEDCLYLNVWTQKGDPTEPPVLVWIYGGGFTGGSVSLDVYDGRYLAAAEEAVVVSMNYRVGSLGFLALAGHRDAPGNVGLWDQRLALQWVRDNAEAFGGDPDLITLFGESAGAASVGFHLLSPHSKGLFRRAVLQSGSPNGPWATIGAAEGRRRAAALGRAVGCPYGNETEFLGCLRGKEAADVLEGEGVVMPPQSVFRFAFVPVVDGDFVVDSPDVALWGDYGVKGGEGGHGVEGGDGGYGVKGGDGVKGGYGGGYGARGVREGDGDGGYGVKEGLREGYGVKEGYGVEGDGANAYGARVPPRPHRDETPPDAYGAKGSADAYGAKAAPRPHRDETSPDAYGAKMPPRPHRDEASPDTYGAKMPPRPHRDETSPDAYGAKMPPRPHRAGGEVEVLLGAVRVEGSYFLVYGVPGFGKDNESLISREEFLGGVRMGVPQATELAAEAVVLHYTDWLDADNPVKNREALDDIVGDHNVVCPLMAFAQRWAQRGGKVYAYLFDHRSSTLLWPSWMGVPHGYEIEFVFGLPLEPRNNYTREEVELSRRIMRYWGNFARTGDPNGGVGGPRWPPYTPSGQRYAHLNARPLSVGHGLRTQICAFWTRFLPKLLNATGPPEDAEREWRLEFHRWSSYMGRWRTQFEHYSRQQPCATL
Particulars: Gallus domesticus (hen) brain AChE.
Method: Whole brains were suspended in buffer (1 g of tissue plus 10 mL sodium phosphate 0.1 M, pH 7.5) and homogenized in an ice bath using an Ultra-Turrax homogenizer. The homogenate was then centrifuged (5,000g/30 min/5°C), and the soluble fraction was discarded. The pellet was then resuspended using the same volume of a 0.1 g% Triton X-100 in a 0.1 M sodium phosphate, pH 7.5, solution, and re-homogenized. After a second centrifugation (15,000g/90 min/5°C), the supernatant resulting from the pellet ressolubilization, or “solubilized AChE—AchEsol” [7], was collected, frozen, and stored at -20°C. All assays were conducted at most 72 hours after production of the supernatant fractions (AChEsol).
Brain AChE activity was assayed spectrophotometrically in 0.1 M sodium phosphate Triton X-100 0.1 g% pH 7.5 by a modification of Ellman’s method [18], as described by Silva Filho and colleagues [7]. The specificity of AChE for substrates (P%) was calculated by the ratio of AChE activity when using propionylthiocholine as substrate divided by AChE activity when using acetylthiocholine: P%, [(activity with ProScol/activity with AceScol) x 100] (%) [6].
Inhibition kinetic constants (IKC) were obtained using the methods described by Kemp and Wallace [9] and Carr and Chambers [19], and by the equations proposed by Kitz and Wilson [10] and Main [12]. […]

Series [6] relates to AChE. Conditions: read-out: IC50-30min; Genidens genidens, marine fish; cited from earlier work.
Series [7] relates to AChE. Particulars: read-out: IC50-30min; Piaractus mesopotamicus, freshwater fish; cited from earlier work.
Series [8] has as its system AChE. Particulars: read-out: IC50-30min; Prochilodus lineatus, freshwater fish; cited from earlier work.
For series [9], the system named is brain AChE. Format: biochemical, Mugil liza. Conditions: for inhibition of AChE: mullet AChE, 1-5 min incubation. On the procedure:
as §1

Series [10] deals with AChE. Conditions: read-out: IC50-30min; Percophis brasiliensis, marine fish; cited from earlier work.

Like-named read-outs stand apart in the source and are kept apart here.

Consider `COP(=O)(OC)Oc1ccc([N+](=O)[O-])cc1` [methyl-paraoxon, dimethyl-4-nitrophenyl-phosphate], for which the “kp: phosphorylation rate constant” value worked out at 0.55 ± 0.08 min⁻¹ in the series with brain AChE [1] (Lagocephalus laevigatus (puffer fish) brain AChE), 0.71 ± 0.1 min⁻¹ in the series on brain AChE [2], 0.47 ± 0.1 min⁻¹ at brain AChE [5] and 1.64 ± 0.6 min⁻¹ in the series with brain AChE [9] (Mugil liza (mullet) brain AChE). Moreover, the “ki: Bimolecular reaction constant” value at brain AChE [1] (Lagocephalus laevigatus (puffer fish) brain AChE, pH 7.5, 0.1 g% Triton X-100) turned out to be 9.31 ± 0.76 mM⁻¹ min⁻¹; on brain AChE [2] (pH 7.5, 0.1 g% Triton X-100) it was 35.28 ± 1.6 mM⁻¹ min⁻¹; at brain AChE [5] (pH 7.5, 0.1 g% Triton X-100), 900.57 ± 65.3 mM⁻¹ min⁻¹; at brain AChE [9] (Mugil liza (mullet) brain AChE, pH 7.5, 0.1 g% Triton X-100), 10.77 ± 0.69 mM⁻¹ min⁻¹. The dissociation constant (Kd) amounted to 62.6 ± 14.7 µM at brain AChE [1] (Lagocephalus laevigatus (puffer fish) brain AChE, read-out: Kd: dissociation constant of enzyme-inhibitor complex (EI)); 20.3 ± 2.95 µM on brain AChE [2] (read-out: Kd: dissociation constant of enzyme-inhibitor complex (EI)); 159 ± 59.6 µM at brain AChE [9] (Mugil liza (mullet) brain AChE, read-out: Kd: dissociation constant of enzyme-inhibitor complex (EI)). Besides, the IC50 was 2840 ± 145 nM in the series on brain AChE [1] (read-out: IC50: concentration that produced 50% inhibition of brain AChE activity in 30 min, Lagocephalus laevigatus (puffer fish), 30 min incubation, estimated using the ki); 29 nM with brain AChE [3]; 37 nM with brain AChE [4]; 455 nM with AChE [6]; 3.11 µM in the series with AChE [7]; 123 nM with AChE [8]. Besides, the IC50 with brain AChE [9] (read-out: IC50: concentration that produced 50% inhibition of brain AChE activity in 30 min, Mugil liza (mullet), 30 min incubation, estimated using the ki) was 2880 ± 422 nM; in the series with AChE [10], 3.34 µM. Also, the “inhibition of AChE” value is listed as “less than 10%” in the series with brain AChE [9] (5μM of MP) and “higher than 90%” with brain AChE [9] (208μM of MP).

The record behind these values is paper PMC5031402 (PLoS ONE, 2016).
